Blank lines part the entries; values can stand above or below the molecule they belong to.
Key:
[1] = species on record: Homo sapiens; assay: Selectivity ratio of IC50 for recombinant human N-terminal His6-tagged full length PI3K p110alpha/untagged recombinant full length human p85alpha to IC50 for recombinant human full length N-terminal His6-tagged PI3K p110delta/untagged recombinant full length human p85alpha expressed in baculovirus infected Sf21 insect cells
[2] = biological target: PI3-kinase p110-delta/p85-alpha (Homo sapiens, UniProt O00329); assay: Inhibition of recombinant human full length N-terminal His6-tagged PI3K p110delta/untagged recombinant full length human p85alpha expressed in baculovirus infected Sf21 insect cells using PIP2 as substrate after 35 to 40 mins by HTRF assay
[3] = Stability in BALB/c mouse plasma assessed as parent compound remaining at 2 uM after 16 hrs in presence of NaF by LC-MS/MS analysis; type: ADME, cell-free; conditions: read-out: Stability
[4] = Stability in BALB/c mouse plasma assessed as parent compound remaining at 2 uM after 16 hrs in absence of NaF by LC-MS/MS analysis; type: ADME, cell-free; conditions: read-out: Stability
[5] = AUC in BALB/c mouse plasma at 3 mg/kg, po by LC-MS/MS analysis; type: ADME, organism-based
[6] = Cmax in BALB/c mouse plasma at 1 mg/kg, iv followed by po dosing at 3 mg/kg by LC-MS/MS analysis; type: ADME, organism-based
[7] = Tmax in BALB/c mouse plasma at 1 mg/kg, iv followed by po dosing at 3 mg/kg by LC-MS/MS analysis; type: ADME, organism-based
[8] = Half life in BALB/c mouse plasma at 1 mg/kg, iv followed by po dosing at 3 mg/kg by LC-MS/MS analysis; type: ADME, organism-based
[9] = Volume of distribution at steady state in BALB/c mouse plasma at 1 mg/kg, iv followed by po dosing at 3 mg/kg by LC-MS/MS analysis; type: ADME, organism-based; conditions: read-out: Vdss
[10] = Total clearance in BALB/c mouse plasma at 1 mg/kg, iv followed by po dosing at 3 mg/kg by LC-MS/MS analysis; type: ADME, organism-based
[11] = Oral bioavailability in BALB/c mouse plasma at 3 mg/kg by LC-MS/MS analysis; type: ADME, organism-based
[12] = biological target: PI3K p110 beta/p85 alpha (Homo sapiens, UniProt P42338); assay: Inhibition of recombinant human full length N-terminal His6-tagged PI3K p110beta/untagged recombinant full length human p85alpha expressed in baculovirus infected Sf21 insect cells using PIP2 as substrate after 35 to 40 mins by HTRF assay
[13] = biological target: Phosphatidylinositol 4,5-bisphosphate 3-kinase catalytic subunit gamma isoform (Homo sapiens, UniProt P48736); assay: Inhibition of recombinant human full length N-terminal His-tagged PI3Kgamma expressed in Sf9 insect cells using PIP2 as substrate after 35 to 40 mins by HTRF assay
[14] = biological target: PI3-kinase p110-alpha/p85-alpha (Homo sapiens, UniProt P42336); assay: Inhibition of recombinant human N-terminal His6-tagged full length PI3K p110alpha/untagged recombinant full length human p85alpha expressed in baculovirus infected Sf21 insect cells using phosphatidylinositol as substrate after 3 hrs by kinase glo reagent based luminescence assay
PI3-kinase p110-alpha/p85-alpha, sequence (P27986 whole entry): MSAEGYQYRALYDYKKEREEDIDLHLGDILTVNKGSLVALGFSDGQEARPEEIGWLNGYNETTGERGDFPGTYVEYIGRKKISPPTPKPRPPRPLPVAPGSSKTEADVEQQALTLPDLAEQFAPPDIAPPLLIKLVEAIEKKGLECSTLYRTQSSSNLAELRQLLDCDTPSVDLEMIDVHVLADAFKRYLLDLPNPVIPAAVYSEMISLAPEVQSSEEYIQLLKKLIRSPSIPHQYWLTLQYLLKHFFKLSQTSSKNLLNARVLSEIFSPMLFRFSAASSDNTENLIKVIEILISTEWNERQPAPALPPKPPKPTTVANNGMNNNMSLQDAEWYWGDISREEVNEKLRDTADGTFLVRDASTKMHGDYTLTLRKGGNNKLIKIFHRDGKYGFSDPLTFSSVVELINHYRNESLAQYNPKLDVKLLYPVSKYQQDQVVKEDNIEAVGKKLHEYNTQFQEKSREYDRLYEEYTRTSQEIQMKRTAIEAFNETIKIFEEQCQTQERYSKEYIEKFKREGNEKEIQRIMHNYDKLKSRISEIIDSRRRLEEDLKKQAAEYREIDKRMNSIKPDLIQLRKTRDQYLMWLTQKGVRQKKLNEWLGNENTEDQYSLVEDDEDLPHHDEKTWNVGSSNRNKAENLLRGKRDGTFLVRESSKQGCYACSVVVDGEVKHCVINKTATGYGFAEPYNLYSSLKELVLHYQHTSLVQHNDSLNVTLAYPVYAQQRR
PI3-kinase p110-alpha/p85-alpha, sequence (P42336 whole entry): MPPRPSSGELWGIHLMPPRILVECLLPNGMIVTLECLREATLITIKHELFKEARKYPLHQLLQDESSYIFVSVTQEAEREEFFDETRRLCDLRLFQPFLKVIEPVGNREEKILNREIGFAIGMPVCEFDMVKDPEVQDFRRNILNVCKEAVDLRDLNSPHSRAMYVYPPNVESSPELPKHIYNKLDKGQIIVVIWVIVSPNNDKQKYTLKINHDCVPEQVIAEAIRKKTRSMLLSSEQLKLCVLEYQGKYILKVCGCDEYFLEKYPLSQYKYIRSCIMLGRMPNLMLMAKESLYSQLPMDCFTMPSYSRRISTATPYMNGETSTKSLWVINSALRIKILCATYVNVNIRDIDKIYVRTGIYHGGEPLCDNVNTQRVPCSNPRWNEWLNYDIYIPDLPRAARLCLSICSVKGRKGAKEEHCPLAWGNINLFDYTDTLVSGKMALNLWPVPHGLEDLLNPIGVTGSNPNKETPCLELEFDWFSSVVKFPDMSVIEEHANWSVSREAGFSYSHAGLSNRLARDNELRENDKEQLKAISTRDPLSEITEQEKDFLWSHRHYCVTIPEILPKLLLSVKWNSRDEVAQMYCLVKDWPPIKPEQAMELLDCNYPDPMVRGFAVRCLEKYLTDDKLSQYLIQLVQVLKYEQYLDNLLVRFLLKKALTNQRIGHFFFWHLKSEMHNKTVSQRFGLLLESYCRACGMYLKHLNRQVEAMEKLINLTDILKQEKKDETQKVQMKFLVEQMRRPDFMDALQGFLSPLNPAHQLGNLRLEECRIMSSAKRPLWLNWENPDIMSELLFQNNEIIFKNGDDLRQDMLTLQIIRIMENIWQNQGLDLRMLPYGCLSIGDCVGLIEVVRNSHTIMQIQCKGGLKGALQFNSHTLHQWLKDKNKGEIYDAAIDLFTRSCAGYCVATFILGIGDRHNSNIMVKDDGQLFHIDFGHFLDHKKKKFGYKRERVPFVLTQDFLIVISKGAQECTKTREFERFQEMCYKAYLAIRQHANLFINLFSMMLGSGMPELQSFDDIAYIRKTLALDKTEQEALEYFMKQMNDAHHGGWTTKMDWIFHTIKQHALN

PI3-kinase p110-delta/p85-alpha, sequence (P27986 whole entry): as the sequence (P27986 whole entry) above
PI3-kinase p110-delta/p85-alpha, sequence (O00329 whole entry): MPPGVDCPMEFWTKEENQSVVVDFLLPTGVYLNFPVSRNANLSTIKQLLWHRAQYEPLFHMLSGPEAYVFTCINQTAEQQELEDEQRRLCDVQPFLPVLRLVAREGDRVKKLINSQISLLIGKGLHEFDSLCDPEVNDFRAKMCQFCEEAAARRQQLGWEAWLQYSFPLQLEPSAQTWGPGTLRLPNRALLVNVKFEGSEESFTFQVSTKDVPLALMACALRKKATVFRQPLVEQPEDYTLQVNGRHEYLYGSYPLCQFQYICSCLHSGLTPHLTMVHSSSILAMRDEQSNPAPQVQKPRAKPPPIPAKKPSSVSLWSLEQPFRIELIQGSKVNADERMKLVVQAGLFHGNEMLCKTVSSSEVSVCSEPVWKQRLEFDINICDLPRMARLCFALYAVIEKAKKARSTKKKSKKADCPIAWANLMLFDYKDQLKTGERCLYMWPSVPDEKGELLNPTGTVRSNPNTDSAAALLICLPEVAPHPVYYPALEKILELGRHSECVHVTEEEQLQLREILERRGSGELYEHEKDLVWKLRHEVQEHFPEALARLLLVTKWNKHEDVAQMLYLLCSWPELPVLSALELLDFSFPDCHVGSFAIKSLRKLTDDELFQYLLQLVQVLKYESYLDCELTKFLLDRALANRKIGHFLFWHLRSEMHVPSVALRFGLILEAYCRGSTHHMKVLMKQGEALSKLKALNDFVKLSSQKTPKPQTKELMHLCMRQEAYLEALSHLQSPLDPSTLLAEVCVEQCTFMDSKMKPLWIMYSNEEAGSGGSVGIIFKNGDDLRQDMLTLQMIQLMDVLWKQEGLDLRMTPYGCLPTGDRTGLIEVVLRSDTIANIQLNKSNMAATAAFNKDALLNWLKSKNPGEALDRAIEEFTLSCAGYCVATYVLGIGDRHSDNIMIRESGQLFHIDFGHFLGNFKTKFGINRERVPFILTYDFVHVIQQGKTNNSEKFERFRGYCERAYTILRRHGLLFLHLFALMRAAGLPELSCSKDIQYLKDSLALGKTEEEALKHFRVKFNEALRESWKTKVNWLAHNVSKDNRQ
PI3K p110 beta/p85 alpha, sequence (P27986 whole entry, canonical isoform): as the sequence (P27986 whole entry) above
PI3K p110 beta/p85 alpha, sequence (P42338 whole entry, canonical isoform): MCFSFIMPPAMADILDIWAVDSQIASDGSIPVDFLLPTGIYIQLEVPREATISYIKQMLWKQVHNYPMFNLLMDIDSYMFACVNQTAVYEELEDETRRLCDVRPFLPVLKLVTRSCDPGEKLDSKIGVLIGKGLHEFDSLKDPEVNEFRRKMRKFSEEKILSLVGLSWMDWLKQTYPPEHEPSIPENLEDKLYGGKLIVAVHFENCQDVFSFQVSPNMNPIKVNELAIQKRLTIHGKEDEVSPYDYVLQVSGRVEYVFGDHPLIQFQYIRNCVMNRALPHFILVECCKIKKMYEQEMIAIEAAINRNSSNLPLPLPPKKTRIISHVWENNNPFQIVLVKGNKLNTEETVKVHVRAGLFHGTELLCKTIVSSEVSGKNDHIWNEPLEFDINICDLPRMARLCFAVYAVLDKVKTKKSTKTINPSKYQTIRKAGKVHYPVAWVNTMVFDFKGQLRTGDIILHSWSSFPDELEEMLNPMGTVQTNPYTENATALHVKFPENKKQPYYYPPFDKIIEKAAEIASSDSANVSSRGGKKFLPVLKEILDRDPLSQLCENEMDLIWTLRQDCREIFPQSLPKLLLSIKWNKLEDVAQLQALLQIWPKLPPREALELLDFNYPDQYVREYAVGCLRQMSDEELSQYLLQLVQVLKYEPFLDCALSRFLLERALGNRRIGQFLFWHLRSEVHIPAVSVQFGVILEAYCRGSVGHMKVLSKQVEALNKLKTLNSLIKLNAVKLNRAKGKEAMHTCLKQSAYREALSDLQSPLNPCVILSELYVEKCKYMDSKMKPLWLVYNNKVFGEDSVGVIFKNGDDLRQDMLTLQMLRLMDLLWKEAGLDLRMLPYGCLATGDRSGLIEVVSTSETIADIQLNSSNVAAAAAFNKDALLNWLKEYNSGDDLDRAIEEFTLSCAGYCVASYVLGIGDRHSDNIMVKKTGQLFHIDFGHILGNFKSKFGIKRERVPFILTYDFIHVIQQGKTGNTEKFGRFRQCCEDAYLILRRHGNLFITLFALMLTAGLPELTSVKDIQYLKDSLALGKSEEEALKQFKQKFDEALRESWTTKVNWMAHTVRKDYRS
Phosphatidylinositol 4,5-bisphosphate 3-kinase catalytic subunit gamma isoform, sequence (P48736 whole entry, canonical isoform): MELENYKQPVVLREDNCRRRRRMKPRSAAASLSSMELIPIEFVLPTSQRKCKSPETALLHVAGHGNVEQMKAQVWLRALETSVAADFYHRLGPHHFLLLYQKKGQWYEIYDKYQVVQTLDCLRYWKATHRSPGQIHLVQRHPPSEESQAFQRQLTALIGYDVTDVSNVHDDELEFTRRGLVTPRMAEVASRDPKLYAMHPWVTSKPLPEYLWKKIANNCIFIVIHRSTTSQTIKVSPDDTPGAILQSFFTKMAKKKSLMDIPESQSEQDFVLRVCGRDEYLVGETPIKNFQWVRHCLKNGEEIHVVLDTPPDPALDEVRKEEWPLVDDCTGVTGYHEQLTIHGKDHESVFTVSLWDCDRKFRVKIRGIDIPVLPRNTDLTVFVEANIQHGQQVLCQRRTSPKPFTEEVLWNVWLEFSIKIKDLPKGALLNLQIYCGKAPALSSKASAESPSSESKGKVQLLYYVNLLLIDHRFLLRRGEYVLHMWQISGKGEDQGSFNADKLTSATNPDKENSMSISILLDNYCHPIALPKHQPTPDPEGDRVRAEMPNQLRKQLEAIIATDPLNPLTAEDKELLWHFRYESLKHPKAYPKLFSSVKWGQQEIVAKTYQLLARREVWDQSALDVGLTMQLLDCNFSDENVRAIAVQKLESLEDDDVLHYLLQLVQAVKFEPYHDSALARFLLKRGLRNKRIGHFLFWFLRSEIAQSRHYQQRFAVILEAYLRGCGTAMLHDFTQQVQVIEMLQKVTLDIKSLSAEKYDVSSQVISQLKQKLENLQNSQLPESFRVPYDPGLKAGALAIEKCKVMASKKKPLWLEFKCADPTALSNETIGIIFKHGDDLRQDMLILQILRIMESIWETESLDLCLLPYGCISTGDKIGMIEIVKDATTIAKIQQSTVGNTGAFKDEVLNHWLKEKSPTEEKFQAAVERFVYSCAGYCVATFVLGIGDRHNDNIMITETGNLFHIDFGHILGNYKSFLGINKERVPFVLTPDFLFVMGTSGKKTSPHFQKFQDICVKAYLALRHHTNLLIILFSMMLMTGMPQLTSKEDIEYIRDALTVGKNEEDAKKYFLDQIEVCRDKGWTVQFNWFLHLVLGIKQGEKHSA

IC50 [2]: 110 nM
Structure (SMILES): COc1ncc(-c2cc(N[C@@H]3CCN(C(=O)C4CCOCC4)C3)c3cnn(C)c3n2)cc1NS(C)(=O)=O
Ratio IC50 [1]: 3.2

IC50 [2]: 18 nM
Structure (SMILES): COc1ncc(-c2cc(O[C@@H]3CCN(C(=O)C4(C)CCOCC4)C3)c3cnn(C)c3n2)cc1NS(C)(=O)=O

IC50 [2]: 52 nM
Structure (SMILES): COc1ncc(-c2cc(O[C@@H]3CCN(C4CCOCC4)C3)c3cnn(C)c3n2)cc1NS(C)(=O)=O
Ratio IC50 [1]: 21

remaining at 16 h, 2 µM [3]: 90.3%
remaining at 16 h, 2 µM [4]: 0.5%
IC50 [2]: 0.75 nM
Structure (SMILES): COc1ncc(-c2cc(NC(=O)c3coc(CN4CCN(Cc5cccnc5)CC4)n3)c3cnn(C)c3n2)cc1NS(C)(=O)=O
Ratio IC50 [1]: 290

AUC [5]: 1640 ng·h/mL
Cmax [6]: 861 ng/mL
Tmax [7]: 15 min
half-life [8]: 151 min
Vd [9]: 2.37 L/kg
clearance [10]: 24.5 mL/min/kg
remaining at 16 h, 2 µM [4]: 109%
IC50 [2]: 5.3 nM
bioavailability [11]: 71.1%
Structure (SMILES): COc1ncc(-c2cc(O[C@@H]3CCN(C(=O)C4CCOCC4)C3)c3cnn(C)c3n2)cc1NS(C)(=O)=O
Ratio IC50 [1]: 92

IC50 [12]: 520 nM
AUC [5]: 346 ng·h/mL
Cmax [6]: 298 ng/mL
Tmax [7]: 15 min
half-life [8]: 84.6 min
Vd [9]: 2.82 L/kg
clearance [10]: 68.3 mL/min/kg
IC50 [2]: 4.5 nM
bioavailability [11]: 49%
IC50 [13]: > 10000 nM
Structure (SMILES): COc1ncc(-c2cc(O[C@@H]3CCN(Cc4c(C)nn(C)c4C)C3)c3cnn(C)c3n2)cc1NS(C)(=O)=O
Ratio IC50 [1]: 320

IC50 [2]: 4.5 nM
Structure (SMILES): COc1ncc(-c2cc(O[C@@H]3CCN(Cc4ccccc4)C3)c3cnn(C)c3n2)cc1NS(C)(=O)=O
Ratio IC50 [1]: 160

IC50 [2]: 53 nM
Structure (SMILES): COc1ncc(-c2cc(O[C@H]3CCN(C(=O)C4CCOCC4)C3)c3cnn(C)c3n2)cc1NS(C)(=O)=O
Ratio IC50 [1]: 13

IC50 [2]: 36 nM
Structure (SMILES): COc1ncc(-c2cc(O[C@@H]3CCN(C(=O)CC4CCOCC4)C3)c3cnn(C)c3n2)cc1NS(C)(=O)=O
Ratio IC50 [1]: 17

remaining at 16 h, 2 µM [3]: 92.3%
remaining at 16 h, 2 µM [4]: 17.6%
IC50 [2]: 3.3 nM
Structure (SMILES): COc1ncc(-c2cc(NC(=O)c3coc(CN4CCN(CCN5CCOCC5)CC4)n3)c3cnn(C)c3n2)cc1NS(C)(=O)=O
Ratio IC50 [1]: 250

IC50 [2]: 230 nM
Structure (SMILES): COc1ncc(-c2cc(N(C)[C@@H]3CCN(C(=O)C4CCOCC4)C3)c3cnn(C)c3n2)cc1NS(C)(=O)=O

IC50 [2]: 18 nM
Structure (SMILES): COc1ncc(-c2cc(O[C@@H]3CCN(CC4CCOCC4)C3)c3cnn(C)c3n2)cc1NS(C)(=O)=O
Ratio IC50 [1]: 29

IC50 [2]: 16 nM
Structure (SMILES): COc1ncc(-c2cc(O[C@@H]3CCN(C(=O)c4ccccc4)C3)c3cnn(C)c3n2)cc1NS(C)(=O)=O
Ratio IC50 [1]: 5.3

AUC [5]: 45.6 ng·h/mL
Cmax [6]: 19.9 ng/mL
Tmax [7]: 120 min
half-life [8]: 22 min
Vd [9]: 4.03 L/kg
clearance [10]: 170 mL/min/kg
remaining at 16 h, 2 µM [3]: 79.7%
remaining at 16 h, 2 µM [4]: 0.4%
IC50 [2]: 8.4 nM
IC50 [14]: 330 nM
bioavailability [11]: 16%
Structure (SMILES): COc1ncc(-c2cc(NC(=O)c3coc(CN4CCN(C(C)C)CC4)n3)c3cnn(C)c3n2)cc1NS(C)(=O)=O
Ratio IC50 [1]: 40

IC50 [2]: 8.2 nM
Structure (SMILES): COc1ncc(-c2cc(O[C@@H]3CCN(Cc4cnn(C)c4)C3)c3cnn(C)c3n2)cc1NS(C)(=O)=O
Ratio IC50 [1]: 71

IC50 [2]: 38 nM
Structure (SMILES): COc1ncc(-c2cc(O[C@@H]3CCN(S(=O)(=O)C4CCOCC4)C3)c3cnn(C)c3n2)cc1NS(C)(=O)=O
Ratio IC50 [1]: 2

Source: ChEMBL document CHEMBL4219210, “Discovery and biological evaluation of novel pyrazolopyridine derivatives as potent and orally available PI3Kδ inhibitors” (Bioorg Med Chem, 2018)
